Results on 1 compound are retold here after ChEMBL document CHEMBL4411277, “Structural Revision of Macropodumine A and Structure of 2-Deoxymacropodumine A, Daphniphyllum Alkaloids with 11-Membered Macrolactone Rings” (J Nat Prod, 2019).

The assay relates to HeLa. As to the kind of experiment: Cytotoxicity against human HeLa cells assessed as reduction in cell viability by MTT assay. It is filed as functional, cell-based.

As for `C[C@@H]1CN2C[C@H]3CCC(=O)OCC[C@H]4CC5=C(C4=O)[C@@]3(C)[C@H]2C[C@H]1C5=O`, the IC50 came out at 3.89 µM.
